Measurements taken from US10561611B2, “Combination liposomal pharmaceutical formulations” (Cureport, Inc., priority 2015, dated 2020).

Experiment: in vivo
Details: male, CD-1, mouse, iv
Procedure: Male CD-1 mice ranging from 20-25 g body weight were split up into groups of three. Each mouse was administered with a single dose of CPT319A or CPT307A at 5 mg/kg DXR by intravenous (IV) injection through the tail vein. A non-liposomal combination of DXR was used as the control. Blood samples were collected at 0.167, 1, 3, 8, 24, and 48 h after the injection. DXR plasma concentration was determined by liquid chromatography-tandem mass spectrometry (LC-MS-MS).

AUC: 688 ng·h/mL
AUC (5 mg/kg): 688 ng·h/mL
SMILES: COc1cccc2c1C(=O)c1c(O)c3c(c(O)c1C2=O)C[C@@](O)(C(=O)CO)C[C@@H]3O[C@H]1C[C@H](N)[C@H](O)[C@H](C)O1 [Naked DXR, doxorubicin]
